Data as given in US6303618A, “Cyclin dependent kinase inhibiting purine derivatives” (priority 1997, dated 2001).
Where “and” joins values, the source holds several entries; their conditions need not be identical. Equal entries are not always repeated. Where two headings read alike, the source gives them in different places.

Assays:
[1] = Insolubility noted in the CDK assay
[2] = system: CDK1 (p34 cdc2)/cyclin B; assay: CDK inhibition assay (histone H1 kinase), CDK1; format: biochemical, starfish (Marthasterias glacialis); conditions: for IC50: CDK1, Table 1
Method: (§1) By way of example, however, a typical protocol is summarised below.
Histone H1 (type III-S (Sigma) 4° C.) 5 mg/ml in buffer C.
[^32 P]ATP […]: Make up using (multiples of) the following proportions:
DMSO cannot exceed 1% in the assay mixture. Inhibitors are added at 1/10 final assay volume and 10×final strength. DMSO stocks must therefore be diluted to 10×final desired concentration in ≤10% DMSO, ≥90% buffer C.
Start reaction in each tube at 30 second intervals by adding
5 ml [^32 P]ATP vortexing and placing in rack in waterbath at 30° C.
Terminate reaction after 10 min at 30 second intervals in tubes in same order by removing
25 ml reaction mix and spotting onto appropriately labelled filter, allowing to dry for 20-30 seconds and transferring to stirring 1% phosphoric acid.
Blank incubation is performed as above but without histone (add […] buffer C instead) Washing blank is […] ATP added directly to filter.

[3] = molecular target: CDK2 (Homo sapiens, UniProt P24941); assay: CDK inhibition assay, CDK2; format: biochemical; conditions: for IC50: Table 1; for inhibition at 100 µM: read-out: % inhibition CDK2, at 100 μM
From the text: (§2) Apart from reference compounds, the compounds listed are accompanied by an NU reference or identification code number.
as §1

[4] = molecular target: T1, CDK4 (Homo sapiens, UniProt P11802); assay: CDK inhibition assay, CDK4; format: biochemical; conditions: Table 1
T1 sequence (P11802 whole entry, species assumed): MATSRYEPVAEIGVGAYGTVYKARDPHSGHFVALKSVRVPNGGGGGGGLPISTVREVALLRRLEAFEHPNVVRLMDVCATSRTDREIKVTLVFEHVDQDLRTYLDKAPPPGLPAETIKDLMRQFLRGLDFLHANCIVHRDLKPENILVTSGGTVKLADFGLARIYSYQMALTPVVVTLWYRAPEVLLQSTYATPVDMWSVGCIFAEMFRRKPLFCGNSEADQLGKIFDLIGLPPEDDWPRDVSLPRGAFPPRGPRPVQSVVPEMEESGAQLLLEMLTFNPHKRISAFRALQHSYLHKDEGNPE
T1 sequence (P24385 whole entry partner, species assumed): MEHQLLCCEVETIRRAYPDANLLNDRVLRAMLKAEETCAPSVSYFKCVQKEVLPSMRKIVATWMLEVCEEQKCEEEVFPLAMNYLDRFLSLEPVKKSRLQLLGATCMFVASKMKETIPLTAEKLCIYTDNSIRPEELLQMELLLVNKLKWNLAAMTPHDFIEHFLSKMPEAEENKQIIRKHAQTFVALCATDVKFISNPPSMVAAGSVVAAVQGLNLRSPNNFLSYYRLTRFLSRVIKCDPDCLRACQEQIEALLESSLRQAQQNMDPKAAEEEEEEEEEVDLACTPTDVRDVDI
From the text: as §2, §1

[5] = system: CDK; conditions: in words; cited from earlier work
[6] = molecular target: T1, CDK4; conditions: in words; cited from earlier work
[7] = Cytotoxicity; format: cell-based
[8] = system: O^6 -methylguanine DNA-methyltransferase (MGMT)
[9] = system: many common kinases other than CDK's; conditions: in words; cited from earlier work
[10] = system: CDK6; conditions: in words; cited from earlier work
[11] = read-out: % inhibition CDK2, at 10 μM
[12] = at 10 μM, read-out: % inhibition CDK2

Structure (SMILES) | insolubility in CDK2 assay ([1]; at 100 μM) | % inhibition CDK1 ([2]; at 10 μM) [%] | inhibition at 10 µM [3, 11] [%] | IC50 ([4]; CDK4, read-out: IC50 CDK4) | other results
Nc1nc(OCC2CCCCC2)c2[nH]c(=O)[nH]c2n1 [NU6033, 2-Amino-6-cyclohexylmethyloxy-8-oxopurine] |  |  |  |  | insolubility in CDK1 assay ([1]; at 10 μM): insol.
Nc1nc(N)c(N=O)c(OCC2CCCCC2)n1 [NU6027, 2,6-diamino-4-cyclohexyl-methyloxy-5-nitroso-pyrimidine] | Insol |  |  |  | 
Nc1nc(OCc2cccc3ccccc23)c2nc[nH]c2n1 [NU6020, 2-amino-6-(1-naphthyl)-methyloxypurine] | Insol | 10 ± 4 | 3 ± 4 | > 100 µM | 
Clc1nc(OCC2CCCCC2)c2[nH]cnc2n1 [NU6047, 2-chloro-6-cyclohexylmethoxypurine] | Insol | 6 ± 4 | 5 ± 3 |  | insolubility in CDK1 assay ([1]; at 100 μM): Insol
Nc1nc(N)c(N=O)c(OCC2CC=CCC2)n1 (centres unmarked) [NU6045] | Insol | 73 ± 3 | 70 ± 1 |  | IC50 ([3]; CDK2, read-out: IC50 CDK2): 6.1 µM
Nc1cc(OCC2CCCCC2)nc(N)n1 [NU6034, 2,6-diamino-4(cyclohexylmethoxy)-pyrimidine] | Insol |  | 7 ± 3 |  | 
CN(C)c1nc(OCC2CCCCC2)c2nc[nH]c2n1 [NU6048, 2-dimethylamino-6-cyclohexyl methoxypurine] | Insol | 27 ± 6 |  |  | inhibition at 10 µM [3, 12]: 31 ± 3%; insolubility in CDK1 assay ([1]; at 100 μM): Insol
Nc1nc(OCc2ccc3ccccc3c2)c2nc[nH]c2n1 [NU6018, 2-amino-6-(2-naphthyl)-methyloxypurine] | Insol | 12 ± 4 | 9 ± 9 | > 100 µM | 
Nc1nc(N)c(N=Nc2ccc(Cl)cc2)c(OCC2CCCCC2)n1 [NU6037] | Insol | 3 ± 3 |  |  | inhibition at 10 µM [3, 12]: 6 ± 4%
CC[C@H](CO)Nc1nc(NCc2ccccc2)c2ncn(C(C)C)c2n1 [roscovitine, 6-(benzylamino)-2(R)-[{1-(hydroxy-methyl)propyl}amino]-9-isopropylpurine] |  |  |  |  | mode of inhibition [5]: competitive inhibitors for ATP binding; activity against CDK4 [6]: neither has been found to be active
CO[C@@H]1O[C@H](COc2nc(N)nc3[nH]cnc23)[C@H]2OC(C)(C)O[C@@H]12 [NU6012, O^6 -Ribofuranosylguanine] |  |  |  | > 100 µM | % inhibition CDK1 ([2]; at 100 μM): 32%; inhibition at 100 µM [3]: 16 ± 5%
Nc1nc(OCC23CC4CC(CC(C4)C2)C3)c2[nH]cnc2n1 [NU6014, 2-amino-6-adamantyl-methyloxypurine] | Insol |  | 20 ± 4 | > 100 µM | 
C=C(C)[C@@H]1CC=C(COc2nc(N)nc3[nH]cnc23)CC1 [NU2077] | insol |  | 16 ± 26 | > 100 µM | IC50 [2]: 22 µM; inhibition at 25 µM ([3]; read-out: % inhibition CDK2, at 25 μM): 54%
Nc1nc(OCc2ccccc2)c2[nH]cnc2n1 [NU2005, 2-amino-6-benzyloxypurine] |  |  |  | 100 µM | IC50 [2]: 35 µM; IC50 ([3]; IC50 CDK2, CDK2): 28.6 µM; inhibition at 100 µM [3]: 64 ± 3%
C=C(COc1nc(N)nc2[nH]cnc12)c1ccccc1 [NU2042, O^6-(2-Phenylallyl)guanine] |  |  |  | > 100 µM and 330 µM | IC50 [2]: 40 µM; IC50 ([3]; CDK2, read-out: IC50 CDK2): 23.3 µM; inhibition at 100 µM [3]: 75 ± 2%
Nc1nc(OCC2CCCCC2)c2nc[nH]c2n1 [NU2058, O^6 -Cyclohexylmethylguanine] |  |  |  |  | inhibitory activity against CDK1(cdc2)/cyclin B complexes ([2]; in words, compared with olomoucine): very high inhibitory activity, comparable to that of olomoucine; IC50 ([4]; IC50 CDK4, CDK4): 38 µM; cytotoxicity [7]: cytotoxic; activity as MGMT inhibitor [8]: very little activity
Cn1cnc2c(NCc3ccccc3)nc(NCCO)nc21 [Olomoucine, 2-(2-hydroxyethylamino)-6-benzylamino-9-methyl-purine] |  |  |  |  | inhibitory activity in relation to many common kinases other than CDK's [9]: total lack of inhibitory activity; mode of inhibition [5]: competitive inhibitors for ATP binding; activity against CDK6 [10]: neither has been found to be active
Nc1nc(OC[C@@H]2CCC(=O)N2)c2nc[nH]c2n1 [NU6031, 2-amino-6-[(S)-2'-oxopyrrolidin-5'-methyl]oxypurine] |  |  |  | > 1000 µM | % inhibition CDK1 ([2]; at 100 μM): 26 ± 3%; IC50 ([3]; CDK2, read-out: IC50 CDK2): 314 µM; inhibition at 100 µM [3]: 20 ± 2%
